Laboratory results from patent publication US4006226A, “Anticonvulsant diphenylsilanes” (priority 1976, dated 1977).

Key:
maximal electroshock [1] = experiment: Modified maximal electroshock test (100 Hz, 0.1 sec., 150 volt) of hydrolyzable silanes, oral; format: in vivo, male Carworth mice; conditions: for ED50: Mus musculus, read-out: Maximal Electroshock ED50 (95% C.I.); for ED50 / Maximal Electroshock ED50 (95% C.I.): sesame oil; for anticonvulsant activity (in words): maximal electroshock
Method: (§1) The modified (100 Hz, 0.1 sec., 150 volt) maximal electroshock test was used to determine the anticonvulsant activity of several hydrolyzable silanes. Male Carworth mice were used as the test animal. All of the compounds were administered orally in a sesame oil carrier. […] The effective amount (ED50) for the compounds at three different time intervals after dosing was determined as previously described.

[2] = LD50, single dose in sesame oil, 14 days observation; set-up: species or system male Carworth mice; conditions: mouse, in vivo, po, dead after 14 days
Method: as §1
The LD50 of certain silanes was determined by administering a single dose of the silane in sesame oil to groups of the male mice.

maximal electroshock [3] = experiment: Modified maximal electroshock (100 Hz, 0.1 second, 150 volts), intravenous dosing; format: in vivo, mice
Method: (§2) Mice were also dosed with a similar solution of diphenylsilanediol but by intravenous administration. The ED50 was determined to be 10 mg./kg. with a 5 minute peak time by a modified maximal electroshock technique in which stimulus was delivered at 100 Hz for 0.1 second at 150 volts.

[4] = Acute toxicity (LD50), i.p.; conditions: mouse, in vivo, ip, mice, freshly prepared solution
Method: (§3) (ED99) to be 30 minutes after dosing, the half time of the effect to be about four hours, with some measurable anticonvulsant activity being noted up to 10 hours. The toxicity (LD50) of this silane solution (as freshly prepared) in mice, administered i.p., was determined to be 2500 mg./kg.

[5] = system: strychnine-induced seizures; experiment: Strychnine-induced seizure test (method of Everett and Richards); format: in vivo, mice (female Swiss Webster); conditions: Mus musculus, ip, 0.5 h
Method: (§4) Diphenylsilanediol was also tested to determine its effectiveness against chemically-induced seizures. Pentylenetetrazol and strychnine were the convulsant compounds used. Pentylenetetrazol testing was performed in accordance with Swinyard's method as described in J. Am. Pharm. Assoc. 38:201, 1949, while styrchnine tests were made by the method of Everett and Richards as described in J. Pharm. Exp. Ther. 81:402, 1944.
(§5) The silane (in 0.5% aqueous methylcellulose) was administered i.p. to groups of 6 mice (female Swiss Webster) at doses of 10, 30, 100 and 300 mg./kg. The silane solution was administered 30 minutes before injection with one of the convulsant drugs. The end point for scoring effectiveness was the absence of clonic seizures during the 30 minute period subsequent to administration of the convulsant -- this same criterion was utilized in conducting the strychnine tests. In both tests, effective amounts (ED50) of the silane were equivalent with the pentylenetetrazol-induced convulsion requiring 58 mg./kg. and the styrchnine tests showing 60 mg./kg. as the ED50.

[6] = system: Pentylenetetrazol-induced clonic seizures; experiment: Pentylenetetrazol-induced seizure test (Swinyard's method); format: in vivo, mice (female Swiss Webster); conditions: Mus musculus, ip, 0.5 h; i.p., 30 minutes before pentylenetetrazol; absence of clonic seizures
Method: as §4, §5

[7] = system: tonic extension of the hind limbs; experiment: Electroshock test (60 Hz A.C., 0.2 second, 50 milliamp), i.p. dosing; format: in vivo, mice (female Swiss Webster)
Method: The electroshock test procedure was used to determine anticonvulsant activity of diphenylsilanediol. Adult female mice (Swiss Webster strain) were utilized as test animals. […] Seizure protection was scored as inhibition of tonic extension. Groups of mice (six/group) were dosed interperitonially with varying amounts of diphenylsilanediol in a 0.5% methylcellulose solution in distilled water. The dosages ranged from 10 to 100 mg./kg. and the electroshock was applied 30 minutes after dosing.
as §3

maximal electroshock [8] = experiment: Modified maximal electroshock, oral dosing via gastric intubation in sesame oil; format: in vivo, mice; conditions: Mus musculus
Method: as §2
Oral dosing of mice via gastric intubation with the diphenylsilanediol suspended in sesame oil solution was also performed. Maximal electroshock (modified as described above) was again used to determine the amount necessary to provide an effective dose (ED50) at various time intervals after dosing.

[9] = system: idiopathic epilepsy, grand mal seizures of the clonic type; experiment: Control of seizures in a dog with idiopathic epilepsy; format: in vivo, dog (German Shepard)
Method: A young adult dog (German Shepard) was diagnosed as having idiopathic epilepsy after having grand mal seizures of the clonic type.
After five days of dosing, the same amount was administered orally in 250 mg. capsules for a period of 10 days.

[10] = after cessation of 10 mg./kg. oral dose twice daily
[11] = after discontinuation of 500 mg. regimen

Structure (SMILES)	ED50 (maximal electroshock [1]; 2 hrs. after dosing)	ED50 (maximal electroshock [1]; 4 hrs. after dosing)	ED50 (maximal electroshock [1]; 6 hrs. after dosing)	LD50 at 336 h [2]	further results
CC(=O)O[Si](OC(C)=O)(c1ccccc1)c1ccccc1	43 mg/kg	11 mg/kg	50 mg/kg		
CN[Si](NC)(c1ccccc1)c1ccccc1	68 mg/kg	70 mg/kg	153 mg/kg		
CCO[SiH](c1ccccc1)c1ccccc1	22 mg/kg	21 mg/kg	46 mg/kg		
N[Si](N)(c1ccccc1)c1ccccc1 [.phi.2 Si(NH2)2]	56 mg/kg	68 mg/kg	100 mg/kg		
CCO[Si](OCC)(c1ccccc1)c1ccccc1 [.phi.2 Si(OC2 H5)2]	37 mg/kg	50 mg/kg	22 mg/kg	1720 mg/kg	
CO[Si](OC)(c1ccccc1)c1ccccc1 [.phi.2 Si(OCH3)2]	39 mg/kg	26 mg/kg	52 mg/kg	1060 mg/kg	
O[Si](O)(c1ccccc1)c1ccccc1 [.phi.2 Si(ONa)2]	37 mg/kg	61 mg/kg	90 mg/kg		
CC(C)O[Si](OC(C)C)(c1ccccc1)c1ccccc1 [.phi.2 Si(Oi-C3 H7)2]		99 mg/kg	66 mg/kg	990 mg/kg	Maximal Electroshock ED50 (95% C.I.) (maximal electroshock [1]; 2 hrs. after dosing): no protection
CCCO[Si](OCCC)(c1ccccc1)c1ccccc1 [.phi.2 Si(On-C3 H7)2]		89 mg/kg	32 mg/kg	1000 mg/kg	Maximal Electroshock ED50 (95% C.I.) (maximal electroshock [1]; 2 hrs. after dosing): no protection
CCCCO[Si](OCCCC)(c1ccccc1)c1ccccc1 [.phi.2 Si(On-C4 H9)2, diphenyl-di-n-butoxysilane, reference compound]		1000 mg/kg	1000 mg/kg	5300 mg/kg	anticonvulsant activity (in words) (maximal electroshock [1]): no observed activity; Maximal Electroshock ED50 (95% C.I.) (maximal electroshock [1]; 2 hrs. after dosing): no protection
CCCCS[Si](SCCCC)(c1ccccc1)c1ccccc1 [.phi.2 Si(SC4 H9)2]	290 mg/kg	65 mg/kg	65 mg/kg		
c1ccc([SiH2]c2ccccc2)cc1 [.phi.2 SiH2]	28 mg/kg	25 mg/kg	28 mg/kg	924 mg/kg	
CN(C)[Si](c1ccccc1)(c1ccccc1)N(C)C [.phi.2 Si[N(CH3)2]2]	50 mg/kg	50 mg/kg	56 mg/kg		
CCN(CC)CCO[Si](OCCN(CC)CC)(c1ccccc1)c1ccccc1 [.phi.2 Si[OCH2 CH2 N(C2 H5)2]2]	52 mg/kg	84 mg/kg	168 mg/kg		
O[Si](O)(c1ccccc1)c1ccccc1 [diphenylsilanediol]					peak time (maximal electroshock [3]): 5 min; ED50 (maximal electroshock [3]; Mus musculus, 5 min): 10 mg/kg; LD50 [4]: 2500 mg/kg; ED50 [5]: 60 mg/kg; ED50 [6]: 58 mg/kg; half time of the effect ([7]; 25 mg./kg. (ED99)): about four; peak time of the anticonvulsant effect ([7]; 25 mg./kg. (ED99)): 30 min; some measurable anticonvulsant activity noted up to ([7]; 25 mg./kg. (ED99)): up to 10 hours; ED99 ([7]; Mus musculus, ip, 0.5 h): 25 mg/kg; ED50 ([7]; Mus musculus, ip, 0.5 h, 0.5% methylcellulose, electroshock 30 minutes after dosing, read-out: effective dose to prevent convulsions in half the animals (ED50)): 20 mg/kg; ED50 (maximal electroshock [8]; 2 hrs. after dosing): 25 mg/kg; ED50 (maximal electroshock [8]; 4 hrs. after dosing): 37 mg/kg; ED50 (maximal electroshock [8]; 6 hrs. after dosing): 60 mg/kg; control of seizures ([9]; 500 mg. intramuscularly twice per day): effective in controlling seizures; seizures during 15 day period ([9]; 500 mg. twice per day, 5 days intramuscular then 10 days oral (250 mg. capsules)): did not experience seizures; first seizure postdose [9, 10]: 30 h; interval of seizures after cessation [9, 10]: three; first seizure after the last dose [9, 11]: 39 h; interval of seizures after discontinuation [9, 11]: about four; elimination of seizures ([9]; one-half the previous dosage, 10 mg./kg. orally twice daily, 10 days): effective in eliminating seizures
O[Si](O[Si](O)(c1ccccc1)c1ccccc1)(c1ccccc1)c1ccccc1 [reference compound]	1000 mg/kg	1000 mg/kg	1000 mg/kg		anticonvulsant activity (in words) (maximal electroshock [1]): no anticonvulsant activity
